# Results taken from patent US8828926B2, “Uses of natriuretic peptide constructs” (priority 2010, dated 2014).
# Positions of bridges follow the written chain, without caps; N, C: chain ends. Non-standard residues stand in square brackets, D forms with d. Residues, ends and D or L forms follow the SMILES beside them. *: point of attachment. X1 = N=C(N)NCCC[C@H]1C(=O)N[C@@H](C(N)=O)CN1*; dNle = CCCC[C@@H](N)C(=O)O; Heptanoyl = CCCCCCC(=O)*
# Assays:
# human lung tissues = test: Human precision-cut lung slice relaxation, precontracted with carbachol; assay type: cell-based
# human NEP (hNEP) = human NEP (hNEP) (Homo sapiens, UniProt P08473); test: Metabolism by human neutral endopeptidase (hNEP) solution at 37° C.; assay type: in vitro ADME; conditions: substrate concentration 50 μM; for remaining at 2 h, 50 μM: read-out: percent remaining after 2-hour exposure to hNEP
# Chain of human NEP (hNEP) (P08473 whole entry): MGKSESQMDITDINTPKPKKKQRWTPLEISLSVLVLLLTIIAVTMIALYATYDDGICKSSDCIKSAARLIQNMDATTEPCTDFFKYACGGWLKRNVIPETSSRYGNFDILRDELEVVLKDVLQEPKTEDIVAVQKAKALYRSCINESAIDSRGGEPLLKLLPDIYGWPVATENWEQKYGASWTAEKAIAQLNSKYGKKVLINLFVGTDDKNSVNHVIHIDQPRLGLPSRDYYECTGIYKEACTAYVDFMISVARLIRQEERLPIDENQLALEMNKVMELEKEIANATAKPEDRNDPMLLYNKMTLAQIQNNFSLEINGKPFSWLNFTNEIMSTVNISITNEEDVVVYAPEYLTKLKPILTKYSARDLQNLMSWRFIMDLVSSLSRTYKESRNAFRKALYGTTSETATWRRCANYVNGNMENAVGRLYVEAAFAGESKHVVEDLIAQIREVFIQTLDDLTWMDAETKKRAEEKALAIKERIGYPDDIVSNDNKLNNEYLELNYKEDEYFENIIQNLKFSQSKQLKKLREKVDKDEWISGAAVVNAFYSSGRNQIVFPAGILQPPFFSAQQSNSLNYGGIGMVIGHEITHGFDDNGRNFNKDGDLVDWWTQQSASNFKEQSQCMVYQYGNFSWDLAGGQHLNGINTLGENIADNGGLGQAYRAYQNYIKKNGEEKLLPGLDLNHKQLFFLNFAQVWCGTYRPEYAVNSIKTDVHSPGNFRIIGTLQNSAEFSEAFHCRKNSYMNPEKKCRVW
# Procedure: . Pharmacol. 191:341-366 (2009)). A comparison was made between the sensitivity of the construct of formula IV and ANP to metabolism by human NEP (hNEP) (substrate concentration 50 μM). After 2-hour exposure to hNEP solution at 37° C., there was minimal degradation of the construct of formula IV (92% remaining; n=5). In contrast, under these conditions ANP was about 90% degraded after 60 minutes and 100% after 2-hours (n=4). […] Results are shown in FIG. 1; results in FIG. 1 are expressed as the percent of the starting material, and are either the mean of 1-5 experiments or, where error bars are shown, are the mean±standard deviation.
# [1] = Potter et al. 2009; cited from earlier work
# [2] = test system: bronchoconstrictor response evoked by methacholine; test: Methacholine-evoked bronchoconstriction in anesthetized guinea pigs, intratracheal delivery; assay type: in vivo, guinea pigs (Dunkin Hartley); conditions: 1000 μg/kg IT, 15 minutes, methacholine 10 μg/mL
# Procedure: Studies were conducted with intratracheal (IT) delivery of the construct of formula IV in anesthetized guinea pigs (Dunkin Hartley) challenged with the muscarinic receptor agonist, methacholine. […] The inhibition was maintained for all doses after the 60 minute pretreatment time. The duration of action of 10 μg/kg and 100 μg/kg doses of the construct of formula IV was explored (FIGS. 4C and 4D). For both doses the inhibition extended to 120 minutes post-administration, although it was reduced, with inhibitory effect absent after 240 minutes pretreatment.
structure (smiles),measurement,setting,value
CC(C)NCC(O)c1ccc(O)c(O)c1 (stereo not shown) [Isoprenaline],relaxation of carbachol-induced contraction,"human lung tissues; 100 μM, human lung slices",about 75%
same,Isoproterenol-mediated broncho-dilatation,"human lung tissues; in the absence of the construct of formula IV, n=4",88.2±3.4%
CCCCCCC(=O)N[C@H]1CSSC[C@@H](C(=O)N[C@@H](Cc2ccc(O)cc2)C(=O)N2C[C@H](C(N)=O)NC(=O)[C@@H]2CCCNC(=N)N)NC(=O)[C@H](CO)NC(=O)[C@H]([C@@H](C)CC)NC(=O)[C@H](CCCNC(=N)N)NC(=O)[C@H](CC(=O)O)NC(=O)[C@@H](CCCC)NC(=O)[C@H](CCCNC(=N)N)NC(=O)CNC(=O)[C@@H](C)NC(=O)[C@H](Cc2ccccc2)NC(=O)[C@H](Cc2c[nH]cn2)NC1=O [construct of formula IV] (Heptanoyl-CHF[dA]GR[dNle]DRISCY-X1; disulfide 1-12),"remaining at 2 h, 50 μM",human NEP (hNEP),92%
CC[C@H](C)[C@@H]1NC(=O)[C@H](CCCNC(=N)N)NC(=O)[C@H](CC(=O)O)NC(=O)[C@H](CC(C)C)NC(=O)[C@H](CCCCN)NC(=O)[C@H](CC(C)C)NC(=O)CNC(=O)[C@H](Cc2ccccc2)NC(=O)[C@@H](NC(=O)CNC(=O)[C@H](CCCCN)NC(=O)[C@H](CO)NC(=O)[C@H](CC(C)C)NC(=O)CN)CSSC[C@@H](C(=O)O)NC(=O)CNC(=O)[C@H](CC(C)C)NC(=O)CNC(=O)[C@H](CO)NC(=O)[C@H](CCSC)NC(=O)[C@H](CO)NC(=O)CNC1=O [hCNP],"remaining at 1 h, 50 μM","human NEP (hNEP); 60 min, read-out: percent remaining after 60-min incubation with hNEP",39%
same,"remaining at 2 h, 50 μM",human NEP (hNEP),1%
same,reported human plasma half-life,[1],about 2 minutes
CC(C)(C)NCC(O)c1ccc(O)c(CO)c1 (stereo not shown) [salbutamol],maximum inhibition of bronchoconstrictor response,[2],87±2%
